The source of these data is PMC7334220, “Diamond Blackfan anemia is mediated by hyperactive Nemo-like kinase” (Nature Communications, 2020).

The subject of assay [1] is RPL11-insufficient cord blood CD34+ HSPCs. Kind of assay: In vitro differentiation of cord blood CD34+ HSPCs transduced with shRNA against RPL11. As to conditions: Homo sapiens, 360 h; read-out: erythroid expansion in RPL11-insufficiency, % of control. It is filed as cell-based. An excerpt: Fig. 8 NLK inhibition increases expansion of erythroid progenitors from human and murine models of DBA. a Human cord blood CD34^+ progenitors were transduced with lentivirus co-expressing GFP with shRNA against luciferase (shLuc), RPS19 (shRPS19), or RPL11 (shRPL11). […] Cells were counted and assessed for cell surface expression of CD235. b Lin-Kit^+ hematopoietic progenitors were obtained from three mouse embryos expressing tetracycline-inducible shRNA against RPS19 at day E14.5 or three untreated mice, and thee mature RPL11^+/+ or three mature RPL11^+/lox mice treated with tamoxifen for eight weeks. […] Values were expressed as a percentage relative to untreated controls. c, d Intracellular phosphorylation of NLK at Thr298 was determined by capillary electrophoresis using the Peggy Sue™ Automated Western blotting platform. After lysis, 4 µg of protein from the CD235^+ population was probed against pThr298-NLK and normalized to GAPDH. […] After counting the total cell population, the ratio of CD235^+ erythroblasts was determined by flow cytometry and number of CD235^+ erythroblasts calculated. This was expressed as a percentage of the average number of erythroid cells present in untreated healthy controls. f NLK phosphorylation was assessed by capillary electrophoresis as above. Bars represent means ± SD with individual data points overlaid. […]

For assay [2], the system named is ribosome-competent cord blood CD34+ HSPCs (shLuc). Kind of assay: In vitro differentiation of cord blood CD34+ HSPCs transduced with control shRNA (luciferase). Format: cell-based, human. On the procedure: Lin-Kit^+ fetal liver cells were obtained from mouse embryos expressing tet-on shRNA against RPS19, at day E14.5-15.5. Cells were plated at 2000 cell per well in 96-well plates in the presence or absence of doxycycline. Relative amounts of live cells were quantified by luciferase-based Cell titer-Glo® assay. b TGFβR1 inhibitors were assessed for their ability to increase cell expansion in RPS19-insuffiency. As a control, vehicle alone (no doxycycline) is represented at the far left while all other samples were treated with doxycycline to induce RPS19-insufficiency. c Kit^+ erythroid progenitors were grown in the absence of doxycycline and in the presence of 10 µM of indicated compound. In addition, cells were treated with 5 ng/ml of TGFβ1 for 5 days before being subjected to Cell titer-Glo® assay. d Differentiating cord blood CD34^+ progenitors were transduced with shRNA against luciferase or RPS19 and treated with inhibitors at working concentrations for TGFβ inhibition every three days. […] Cells were counted and CD235^+ erythroid (i and iii) and CD11b^+ myeloid cell (ii and iv) percentages were determined by flow cytometry. The number of erythroid or myeloid cells is expressed as a percentage of the number of that lineage with no cytokine or drug treatment. […]
Fig. 8 NLK inhibition increases expansion of erythroid progenitors from human and murine models of DBA. a Human cord blood CD34^+ progenitors were transduced with lentivirus co-expressing GFP with shRNA against luciferase (shLuc), RPS19 (shRPS19), or RPL11 (shRPL11). […] Cells were counted and assessed for cell surface expression of CD235. b Lin-Kit^+ hematopoietic progenitors were obtained from three mouse embryos expressing tetracycline-inducible shRNA against RPS19 at day E14.5 or three untreated mice, and thee mature RPL11^+/+ or three mature RPL11^+/lox mice treated with tamoxifen for eight weeks. […] Values were expressed as a percentage relative to untreated controls. c, d Intracellular phosphorylation of NLK at Thr298 was determined by capillary electrophoresis using the Peggy Sue™ Automated Western blotting platform. […]

Take `Fc1ccc(Cl)cc1-c1nc(Nc2ccncc2)c2nccnc2n1` [SD208]: the activity at 5 µM was 36.7% in assay [1] and approximately 105% in assay [2] (Homo sapiens, 360 h, read-out: erythroid expansion of HSPCs transduced with control shRNA, % of control). The “restoration of erythroid and myeloid expansion of TGFβ-treated cells” value in assay [2] (ribosome-competent cells, 5 ng/ml TGFβ1, 5 µM compound, 15 days, Fig. 1e) is recorded as “restored”.
